Measured values: ChEMBL document CHEMBL1153924, “Synthesis and antibacterial activity of 4'',11-di-O-arylalkylcarbamoyl azithromycin derivatives” (2009)
Values after ≈ are worked out from the molar mass of the structure shown.

Legend:
Format in all cases: functional
[1] = test system: Streptococcus pneumoniae; test: Antibacterial activity against erythromycin-resistant Streptococcus pneumoniae B1 expressing erm gene by broth microdilution method
[2] = test system: Streptococcus pneumoniae; test: Antibacterial activity against erythromycin-resistant Streptococcus pneumoniae A22072 expressing mef gene by broth microdilution method
[3] = test system: Streptococcus pneumoniae; test: Antibacterial activity against erythromycin-susceptible Streptococcus pneumoniae ATCC 49619 by broth microdilution method
[4] = test system: Streptococcus pneumoniae; test: Antibacterial activity against erythromycin-resistant Streptococcus pneumoniae AB11 expressing erm and mef genes by broth microdilution method

Compound	MIC [1] [mg/L]	MIC [2] [mg/L]	MIC [3] [mg/L]	MIC [4] [mg/L]
CC[C@H]1OC(=O)[C@H](C)[C@@H](O[C@H]2C[C@@](C)(OC)[C@@H](O)[C@H](C)O2)[C@H](C)[C@@H](O[C@@H]2O[C@H](C)C[C@H](N(C)C)[C@H]2O)[C@](C)(O)C[C@@H](C)CN(C)[C@H](C)[C@@H](O)[C@]1(C)O [AZITHROMYCIN]	128 (≈ 171 µM)	4 (≈ 5.34 µM)	< 0.03	256 (≈ 342 µM)
CC[C@H]1OC(=O)[C@H](C)[C@@H](O[C@H]2C[C@@](C)(OC)[C@@H](OC(=O)NCc3ccc(F)cc3)[C@H](C)O2)[C@H](C)[C@@H](O[C@@H]2O[C@H](C)C[C@H](N(C)C)[C@H]2O)[C@](C)(O)C[C@@H](C)CN(C)[C@H](C)[C@@H](OC(=O)NCCc2ccccc2)[C@]1(C)O	0.25 (≈ 0.239 µM)	0.06 (≈ 0.0573 µM)	< 0.03	32 (≈ 30.6 µM)
CC[C@H]1OC(=O)[C@H](C)[C@@H](O[C@H]2C[C@@](C)(OC)[C@@H](OC(=O)NCCc3ccc(O)cc3)[C@H](C)O2)[C@H](C)[C@@H](O[C@@H]2O[C@H](C)C[C@H](N(C)C)[C@H]2O)[C@](C)(O)C[C@@H](C)CN(C)[C@H](C)[C@@H](OC(=O)NCc2ccccc2)[C@]1(C)O	0.25 (≈ 0.239 µM)	0.12 (≈ 0.115 µM)	< 0.03	128 (≈ 122 µM)
CC[C@H]1OC(=O)[C@H](C)[C@@H](O[C@H]2C[C@@](C)(OC)[C@@H](OC(=O)NCCc3ccccc3Cl)[C@H](C)O2)[C@H](C)[C@@H](O[C@@H]2O[C@H](C)C[C@H](N(C)C)[C@H]2O)[C@](C)(O)C[C@@H](C)CN(C)[C@H](C)[C@@H](OC(=O)NCc2ccc(F)cc2)[C@]1(C)O	0.25 (≈ 0.231 µM)	0.25 (≈ 0.231 µM)	0.06 (≈ 0.0555 µM)	4 (≈ 3.7 µM)
CCCCNC(=O)O[C@@H]1[C@@H](C)N(C)C[C@H](C)C[C@@](C)(O)[C@H](O[C@@H]2O[C@H](C)C[C@H](N(C)C)[C@H]2O)[C@@H](C)[C@H](O[C@H]2C[C@@](C)(OC)[C@@H](OC(=O)NCCc3ccc(O)cc3)[C@H](C)O2)[C@@H](C)C(=O)O[C@H](CC)[C@@]1(C)O	0.25 (≈ 0.247 µM)	1 (≈ 0.989 µM)	< 0.03	128 (≈ 127 µM)
CC[C@H]1OC(=O)[C@H](C)[C@@H](O[C@H]2C[C@@](C)(OC)[C@@H](OC(=O)NCc3ccc(F)cc3)[C@H](C)O2)[C@H](C)[C@@H](O[C@@H]2O[C@H](C)C[C@H](N(C)C)[C@H]2O)[C@](C)(O)C[C@@H](C)CN(C)[C@H](C)[C@H]2OC(=O)O[C@@]21C	8 (≈ 8.64 µM)	0.06 (≈ 0.0648 µM)	< 0.03	4 (≈ 4.32 µM)
CCCCNC(=O)O[C@@H]1[C@@H](C)N(C)C[C@H](C)C[C@@](C)(O)[C@H](O[C@@H]2O[C@H](C)C[C@H](N(C)C)[C@H]2O)[C@@H](C)[C@H](O[C@H]2C[C@@](C)(OC)[C@@H](OC(=O)NCc3ccc(OC)cc3)[C@H](C)O2)[C@@H](C)C(=O)O[C@H](CC)[C@@]1(C)O	0.5 (≈ 0.494 µM)	1 (≈ 0.989 µM)	0.06 (≈ 0.0593 µM)	128 (≈ 127 µM)
CC[C@H]1OC(=O)[C@H](C)[C@@H](O[C@H]2C[C@@](C)(OC)[C@@H](OC(=O)NCc3ccc(OC)cc3)[C@H](C)O2)[C@H](C)[C@@H](O[C@@H]2O[C@H](C)C[C@H](N(C)C)[C@H]2O)[C@](C)(O)C[C@@H](C)CN(C)[C@H](C)[C@H]2OC(=O)O[C@@]21C	8 (≈ 8.53 µM)	0.25 (≈ 0.266 µM)	< 0.03	16 (≈ 17.1 µM)
CCCCCNC(=O)O[C@@H]1[C@@H](C)N(C)C[C@H](C)C[C@@](C)(O)[C@H](O[C@@H]2O[C@H](C)C[C@H](N(C)C)[C@H]2O)[C@@H](C)[C@H](O[C@H]2C[C@@](C)(OC)[C@@H](OC(=O)NCc3ccc(OC)cc3)[C@H](C)O2)[C@@H](C)C(=O)O[C@H](CC)[C@@]1(C)O	0.5 (≈ 0.488 µM)	1 (≈ 0.975 µM)	0.06 (≈ 0.0585 µM)	32 (≈ 31.2 µM)
CC[C@H]1OC(=O)[C@H](C)[C@@H](O[C@H]2C[C@@](C)(OC)[C@@H](OC(=O)NCCc3ccc(O)cc3)[C@H](C)O2)[C@H](C)[C@@H](O[C@@H]2O[C@H](C)C[C@H](N(C)C)[C@H]2O)[C@](C)(O)C[C@@H](C)CN(C)[C@H](C)[C@@H](OC(=O)NCCc2ccccc2Cl)[C@]1(C)O	0.25 (≈ 0.229 µM)	0.25 (≈ 0.229 µM)	< 0.03	16 (≈ 14.6 µM)
CCCCCNC(=O)O[C@@H]1[C@@H](C)N(C)C[C@H](C)C[C@@](C)(O)[C@H](O[C@@H]2O[C@H](C)C[C@H](N(C)C)[C@H]2O)[C@@H](C)[C@H](O[C@H]2C[C@@](C)(OC)[C@@H](OC(=O)NCCc3ccccc3Cl)[C@H](C)O2)[C@@H](C)C(=O)O[C@H](CC)[C@@]1(C)O	0.5 (≈ 0.479 µM)	0.5 (≈ 0.479 µM)	< 0.03	16 (≈ 15.3 µM)
CC[C@H]1OC(=O)[C@H](C)[C@@H](O[C@H]2C[C@@](C)(OC)[C@@H](OC(=O)NCc3ccc(F)cc3)[C@H](C)O2)[C@H](C)[C@@H](O[C@@H]2O[C@H](C)C[C@H](N(C)C)[C@H]2O)[C@](C)(O)C[C@@H](C)CN(C)[C@H](C)[C@@H](OC(=O)NCCc2ccccc2Cl)[C@]1(C)O	0.25 (≈ 0.231 µM)	0.12 (≈ 0.111 µM)	< 0.03	2 (≈ 1.85 µM)
CC[C@H]1OC(=O)[C@H](C)[C@@H](O[C@H]2C[C@@](C)(OC)[C@@H](OC(=O)NCCc3ccccc3Cl)[C@H](C)O2)[C@H](C)[C@@H](O[C@@H]2O[C@H](C)C[C@H](N(C)C)[C@H]2O)[C@](C)(O)C[C@@H](C)CN(C)[C@H](C)[C@@H](OC(=O)NCCc2ccc(O)cc2)[C@]1(C)O	0.25 (≈ 0.229 µM)	0.06 (≈ 0.0549 µM)	< 0.03	16 (≈ 14.6 µM)
CC[C@H]1OC(=O)[C@H](C)[C@@H](O[C@H]2C[C@@](C)(OC)[C@@H](OC(=O)NCCc3ccc(O)cc3)[C@H](C)O2)[C@H](C)[C@@H](O[C@@H]2O[C@H](C)C[C@H](N(C)C)[C@H]2O)[C@](C)(O)C[C@@H](C)CN(C)[C@H](C)[C@H]2OC(=O)O[C@@]21C	8 (≈ 8.53 µM)	1 (≈ 1.07 µM)	< 0.03	4 (≈ 4.26 µM)
CC[C@H]1OC(=O)[C@H](C)[C@@H](O[C@H]2C[C@@](C)(OC)[C@@H](OC(=O)NCCc3ccccc3Cl)[C@H](C)O2)[C@H](C)[C@@H](O[C@@H]2O[C@H](C)C[C@H](N(C)C)[C@H]2O)[C@](C)(O)C[C@@H](C)CN(C)[C@H](C)[C@@H](OC(=O)NCc2ccccc2)[C@]1(C)O	0.25 (≈ 0.235 µM)	0.25 (≈ 0.235 µM)	< 0.03	4 (≈ 3.76 µM)
CC[C@H]1OC(=O)[C@H](C)[C@@H](O[C@H]2C[C@@](C)(OC)[C@@H](OC(=O)NCCc3ccccc3Cl)[C@H](C)O2)[C@H](C)[C@@H](O[C@@H]2O[C@H](C)C[C@H](N(C)C)[C@H]2O)[C@](C)(O)C[C@@H](C)CN(C)[C@H](C)[C@H]2OC(=O)O[C@@]21C	8 (≈ 8.36 µM)	0.25 (≈ 0.261 µM)	< 0.03	2 (≈ 2.09 µM)
CC[C@H]1OC(=O)[C@H](C)[C@@H](O[C@H]2C[C@@](C)(OC)[C@@H](O)[C@H](C)O2)[C@H](C)[C@@H](O[C@@H]2O[C@H](C)C[C@H](N(C)C)[C@H]2O)[C@](C)(OC)C[C@@H](C)C(=O)[C@H](C)[C@@H](O)[C@]1(C)O [CLARITHROMYCIN]	64 (≈ 85.6 µM)	4 (≈ 5.35 µM)	< 0.03	128 (≈ 171 µM)
